Experimental data from patent US20100022559A1, “BISOXIMES AS FUNGICIDES” (BAYER CROPSCIENCE AG, priority 2006, published 2010).

Test: logP determination by HPLC on a reversed-phase column (C 18), EEC Directive 79/831 Annex V.A8
Type: physicochemical
Details: [a] acidic range, pH 2.3, 0.1% aqueous phosphoric acid and acetonitrile
Description: The stated logP values were determined in accordance with EEC Directive 79/831 Annex V.A8 by HPLC (high performance liquid chromatography) on a reversed-phase column (C 18). Temperature: 43° C.
In the case of `Cc1cccc(C(=NOCCCON)C(C)C)n1` [XII-2], the logP is reported as 1.05^[a].

Same assay, conditions: method marked [a] in Table 1
With `Cc1cccnc1C(=NOCCCON=C(c1ccccc1)c1ncccc1C)c1ccccc1` [compound 657] the logP was 4.17^[a]. For `CC(=NOCC(C)(C)CON=C(C)c1cccc(Cl)n1)c1cccc(Cl)n1` [compound 569], the logP was 6.50^[a]. For `Cc1cccc(C(=NOCC2(CON=C(c3cccc(C)n3)C3CC3)CC(C(C)(C)C)=NO2)C2CC2)n1` (mixture of isomers) [compound 651], the logP was 3.98^[a]. For `CCC(=NOCC(C)CON=C(CC)c1cc(C)cc(C)n1)c1cc(C)cc(C)n1` (mixture of isomers) [Compound 572], the logP was 3.23^[a].

Same assay, conditions: method marked [b] in Table 1
With `CC(=NOCC(C)CON=C(C)c1ccc2ccc(C)cc2n1)c1ccc2ccc(C)cc2n1` (stereo not drawn) [compound 748] the logP was 7.36^[b]. For `COCc1nc(/C(N)=N/OCc2ccccc2CO/N=C(\N)c2nc(COC)c(C)c(COC)n2)nc(COC)c1C` [compound 708], the logP was 2.16^[b]. For `CCC(=NOCC1(CON=C(CC)c2cccc(C)n2)CC(c2ccccc2)=NO1)c1cccc(C)n1` (stereo not drawn) [compound 611], the logP was 5.08^[b]. In the case of `CC(=NOCC(CON=C(C)c1nc(C)ccc1C)c1ccccc1)c1nc(C)ccc1C` (single isomer, unassigned) [compound 754], the logP is reported as 2.91^[b]. In the case of `CC(=NOCC1(CON=C(C)c2cc(C)cc(C)n2)CC(CC(C)C)=NO1)c1cc(C)cc(C)n1` (stereo not drawn) [compound 641], the logP is reported as 2.66^[b]. For `CCC1=NOC(CON=C(C)c2cc(C)cc(C)n2)(CON=C(C)c2cc(C)cc(C)n2)C1` (stereo not drawn) [Compound 639], the logP was 1.88^[b]. In the case of `Cc1cc(C)nc(/C(N)=N/OCc2ccccc2CO/N=C(\N)c2cc(C)cc(C)n2)c1` [compound 724], the logP is reported as 3.72^[b]. In the case of `CC(=NOCCCCON=C(C)c1sc(C)nc1C)c1cccc(C)n1` (single isomer, unassigned) [compound 540], the logP is reported as 3.56^[b] (isomer A). In the case of `CC(=NOCC(CON=C(C)c1nc(C)ccc1C)Cc1ccccc1)c1nc(C)ccc1C` (stereo not drawn) [compound 590], the logP is reported as 4.15^[b]. For `C=C(CON=C(C)c1cccc(C)n1)CON=C(C)c1sc(C)nc1C` (single isomer, unassigned) [compound 545], the logP was 3.58^[b] (isomer B). In the case of `CC1=NOC(CO/N=C(\C)c2cc(C)cc(C)n2)(CO/N=C(\C)c2cc(C)cc(C)n2)C1` [Compound 637], the logP is reported as 1.60^[b].

Same assay, conditions: method marked [c] in Table 1
For `CC(=NOCC(C)CON=C(C)c1ccc2ccc(C)cc2n1)c1ccc2ccc(C)cc2n1` (stereo not drawn) [compound 748], the logP was 7.36^[c]. In the case of `CC(=NOCC(CON=C(C)c1nc(C)ccc1C)c1ccccc1)c1nc(C)ccc1C` (single isomer, unassigned) [compound 754], the logP is reported as 4.59^[c]. With `CC(=NOCC(CON=C(C)c1nc(C)ccc1C)Cc1ccccc1)c1nc(C)ccc1C` (stereo not drawn) [compound 590] the logP was 6.01^[c].

Same assay, conditions: method marker [a] (footnote not shown); isomer A / isomer B / isomer mixture as noted in the cell
For `CCc1ccnc(C(C)=NOCCCON=C(C)c2cc(CC)ccn2)c1` [Compound 136], the logP was 2.98^[a]. With `CCC(=NOCC(C)CON=C(CC)c1ncccc1C)c1ncccc1C` (single isomer, unassigned) [compound 101] the logP was 4.23^[a] (isomer B). In the case of `Cc1cccnc1C(Cc1ccccc1)=NOCCCON=C(Cc1ccccc1)c1ncccc1C` (single isomer, unassigned) [Compound 97], the logP is reported as 4.89^[a] (isomer A). For `Cc1cccnc1C(CC(C)C)=NOCC(C)CON=C(CC(C)C)c1ncccc1C` (single isomer, unassigned) [compound 102], the logP was 6.50^[a] (isomer B). In the case of `CC(=NOCC(F)(F)CON=C(C)c1cccc(C)n1)c1cccc(C)n1` [compound 86], the logP is reported as 4.00^[a]. For `Cc1ccc(C(=NOCCCON=C(c2ccc(C)c(C)n2)C(C)C)C(C)C)nc1C` (mixture of isomers) [compound 237], the logP was 4.00^[a].

Same assay, conditions: method marker [b]; isomer A / isomer B / isomer mixture as noted in the cell
With `C=C(CON=C(C)c1cccc(C)n1)CON=C(CC(C)C)c1ncccc1C` (mixture of isomers) [compound 154] the logP was 5.08^[b]. In the case of `Cc1nc(C(N)=NOCC(C)CON=C(N)c2csc(C)n2)cs1` (stereo not drawn) [compound 83], the logP is reported as 3.54^[b]. With `CC(=NOCCCON=C(C)c1cc(C)ccn1)c1cc(C)ccn1` [compound 35] the logP was 1.94^[b]. With `C=C(CO/N=C(\N)c1nc(C)cc(C)n1)CO/N=C(\N)c1nc(C)cc(C)n1` [compound 8] the logP was 1.80^[b]. In the case of `C=C(CO/N=C(\N)c1nc(COC)c(C)c(COC)n1)CO/N=C(\N)c1nc(COC)c(C)c(COC)n1` [compound 44], the logP is reported as 1.83^[b]. For `Cc1nc(/C(N)=N/OCO/N=C(\N)c2nc(C)c(Cl)c(C)n2)nc(C)c1Cl` [compound 41], the logP was 2.36^[b]. For `C=C(CON=C(C)c1c(C)noc1C)CON=C(C)c1c(C)noc1C` [compound 25], the logP was 3,57^[b]. With `C=C(CO/N=C(\N)c1nc(C2CC2)cc(C2CC2)n1)CO/N=C(\N)c1nc(C2CC2)cc(C2CC2)n1` [compound 47] the logP was 3.33^[b].

Same assay, conditions: value marked [a]
For `CC(=NOCC(C)CON=C(C)c1cccc(C2CC2)n1)c1cccc(C2CC2)n1` (stereo not drawn) [compound 815], the logP was 7.36^[a]. For `C=C(CON=C(c1cccc(C)n1)C(C)C)CON=C(c1cccc(C)n1)C(C)C` (single isomer, unassigned) [compound 274], the logP was 4.87^[a] (isomer B). For `C=C(CON=C(Cl)c1cc(C)cc(C)n1)CON=C(Cl)c1cc(C)cc(C)n1` [compound 795], the logP was 4.62^[a]. With `C=C(CON=C(C)c1cccc(C)n1)CON=C(Cl)c1ccc(C)c(C)n1` [Compound 807] the logP was 3.8^[a]. With `Cc1cccc(C(=NOCCON=C(c2cccc(C)n2)C(C)C)C(C)C)n1` (mixture of isomers) [compound 288] the logP was 4.03^[a]. With `CC(=NOCC1(CON=C(C)c2ccc(C)c(C)n2)CC1)c1cccc(C)n1` [Compound 786] the logP was 3.99^[a].

Same assay, conditions: value marked [b]
In the case of `CC(=NOCCCCON=C(C)c1cccc(C)n1)c1ccccn1` [Compound 376], the logP is reported as 3.11^[b]. In the case of `CC(=NOCCCCON=C(C)c1cccnc1C)c1cccc(C)n1` [compound 448], the logP is reported as 1.69^[b]. In the case of `C=C(CON=C(C)c1cccc(C)n1)CON=C(C)c1cncc(C)n1` [compound 480], the logP is reported as 3.46^[b]. In the case of `CC(=NOCCC(C)ON=C(C)c1cccc(C)n1)c1cccc(C)n1` (stereo not drawn) [Compound 295], the logP is reported as 3.34^[b]. With `CC(=NOCC(C)CON=C(C)c1ncccc1C)c1cccc(C)n1` (stereo not drawn) [compound 503] the logP was 3.37^[b]. With `COc1cc(OC)nc(C(C)=NOCC(C)CON=C(C)c2nc(OC)cc(OC)n2)n1` (stereo not drawn) [Compound 272] the logP was 4.49^[b]. In the case of `CC(=NOCC(O)CON=C(C)c1ccc(C)c(C)n1)c1ccc(C)c(C)n1` (stereo not drawn) [compound 323], the logP is reported as 1.36^[b]. For `C=C(CON=C(C)c1nc(C)ccc1C)CON=C(C)c1nc(C)ccc1C` (single isomer, unassigned) [compound 308], the logP was 1.84^[b]. For `CC(=NOCCCCCCON=C(C)c1cccc(C)n1)c1ccccc1` [compound 397], the logP was 5.78^[b]. For `CC(=NOCC(C)(C)CON=C(C)c1cccc(C(C)C)n1)c1cccc(C)n1` [Compound 491], the logP was 6.87^[b]. With `C=C(CON=C(C)c1ccc(Cl)cc1)CON=C(C)c1cccc(C)n1` [compound 471] the logP was 5.48^[b]. With `CCC(=NOCC(C)(C)CON=C(C)c1cccc(C)n1)c1cccc(C)n1` [Compound 372] the logP was 5.33^[b]. For `CC(=NOCC(C)CON=C(C)c1cccc2ccccc12)c1cccc(C)n1` (stereo not drawn) [compound 437], the logP was 5.36^[b]. With `C=C(CON=C(C#CC)c1cccc(C)n1)CON=C(C#CC)c1cccc(C)n1` [compound 803] the logP was 3.07^[b]. With `CC(=NOCC1(CON=C(C)c2ccc(C)c(C)n2)CC1)c1cccc(C)n1` [Compound 786] the logP was 3.99^[b]. With `C=C(CON=C(C)c1cccc(C)n1)CON=C(CC(C)C)c1cccc(C)n1` [compound 356] the logP was 5.52^[b]. In the case of `CC(=NOCC(C)(C)CON=C(c1ccccc1)c1cccc(C)n1)c1cccc(C)n1` (mixture of isomers) [Compound 880], the logP is reported as 4.72^[b].

Same assay, conditions: value marked [c]
With `CC(=NOCC(O)CON=C(C)c1ccc(C)c(C)n1)c1ccc(C)c(C)n1` (stereo not drawn) [compound 323] the logP was 3.81^[c]. In the case of `C=C(CON=C(C)c1nc(C)ccc1C)CON=C(C)c1nc(C)ccc1C` (single isomer, unassigned) [compound 308], the logP is reported as 2.94^[c]. In the case of `CC(=NOCC1(CON=C(C)c2ccc(C)c(C)n2)CC1)c1cccc(C)n1` [Compound 786], the logP is reported as 5.70^[c]. With `CC(=NOCC(C)(C)CON=C(c1ccccc1)c1cccc(C)n1)c1cccc(C)n1` (mixture of isomers) [Compound 880] the logP was 5.37^[c].
